Measured values from US7871805B2, “Glucose dehydrogenase” (Toyo Boseki Kabushiki Kaisha, priority 2006, dated 2011).
Where two headings read alike, the source gives them in different places.

Tests used:
[1] = tested on: GDH derived from NBRC32032; test: Effects of chemicals on GDH activity; type: biochemical, Penicillium italicum
[2] = tested on: GDH derived from NBRC6231; test: Effects of chemicals on GDH activity; type: biochemical, Penicillium lilacinoechinulatum
[3] = tested on: GDH derived from NBRC32032; test: Substrate specificity of purified GDH (DCPIP activity assay); type: biochemical, Penicillium italicum; settings: for Relative activity: substrate final concentration 4 mM, activity using glucose as substrate made 100%; for action of enzyme upon substrate (in words): substrate 4 mM
Description: (§1) The present invention is also characterized by high substrate specificity, the action upon maltose is less than 1% of the action upon glucose, and the action upon galactose is less than 2% of the action upon glucose. The action referred to herein indicates the GDH activity at a substrate concentration of 4 mM, it is measured according to Test Example described later, and in a reaction solution composition used, for the substrate concentration, the final concentration is adjusted to 4 mM.
(§2) A reaction reagent is made by mixing 15.8 mL of the PIPES buffer, 0.2 mL of the DCPIP solution and 4 mL of the D-glucose solution.
(§3) The reaction reagent (2.9 mL) is preliminarily heated at 37° C. for 5 minutes. The GDH solution (0.1 mL) is added and gently mixed, subsequently the change of absorbance at 600 nm is recorded for 5 minutes using a spectrophotometer controlled to 37° C. using water as a control, and the change of absorbance per one minute (ΔODTEST) is calculated from a linear portion of the record. The solvent in which GDH will be dissolved in place of the blinded GDH solution is added to the reagent mixture, and the change of absorbance (ΔODBLANK) per one minute is measured. The GDH activity is calculated from these values according to the following formula. One unit (U) in the GDH activity is defined as the amount of the enzyme which reduces 1 μmol DCPIP for one minute in the presence of 200 mM D-glucose. Activity (U/mL)=[—(ΔODTEST−ΔODBLANK)×3.0×dilution scale]/(16.3×0.1×1.0)
(§4) In order to know the substrate specificity of the purified GDH solutions derived from NBRC6231 and NBRC32032 obtained in Example 1, the activity was measured using the reaction reagent in which the substance shown in Table had been dissolved at a final concentration of 4 mM.

[4] = tested on: GDH derived from NBRC6231; test: as above; type: biochemical, Penicillium lilacinoechinulatum; settings: for Relative activity: substrate final concentration 4 mM, activity using glucose as substrate made 100%; for action of enzyme upon substrate (in words): substrate 4 mM
Description: as §1, §2, §3, §4

[5] = additive final concentration 2 mM, activity with no chemical made 100, GDH from NBRC6231
[6] = 2 mM, inhibited = 10% or more activity lowering, strong = 50% or more, GDH from NBRC6231
[7] = 2 mM, inhibited = 10% or more activity lowering, strong = 50% or more, GDH from NBRC32032
[8] = additive final concentration 2 mM, activity with no chemical made 100, GDH from NBRC32032

Row | Compound | Relative activity [1] | Relative activity [2, 5] | Relative activity [3] | Relative activity [4] | also measured
1 | OB(O)O [Borate] | 102 | 111 |  |  | 
2 | OC[C@H]1O[C@H](O[C@H]2[C@H](O)[C@@H](O)[C@@H](O[C@H]3[C@H](O)[C@@H](O)[C@@H](O[C@H]4[C@H](O)[C@@H](O)C(O)O[C@@H]4CO)O[C@@H]3CO)O[C@@H]2CO)[C@H](O)[C@@H](O)[C@@H]1O (stereo partly shown) [Maltotetraose] |  |  | 1.6% | 0.1> % | 
3 | O=[N+]([O-])[O-].[Ag+] [AgNO3, silver nitrate] | 15.0 | 20.9 |  |  | inhibitory effect (in words) [1]: strong inhibitory effect; inhibitory effect (in words) [2, 6]: strong inhibitory effect
4 | CC(=O)[O-].CC(=O)[O-].[Ba+2] [Ba(OAc)2] | 106 | 106 |  |  | 
5 | O=C[C@@H](O)[C@H](O)[C@H](O)CO [Arabinose] |  |  | 0.2% | 0.2% | 
6 | [Cl-].[Cl-].[Zn+2] [ZnCl2] | 75.1 | 76.2 |  |  | 
7 | [Cl][Fe]([Cl])[Cl] [FeCl3, iron chloride (III)] | 77.5 |  |  |  | inhibitory effect (in words) ([1]; 2 mM): inhibited; Relative activity [2]: 106
8 | OCC(O)CO [Glycerin] |  |  | 1.7% | 0.1> % | 
9 | O=C[C@H](O)[C@@H](O)[C@@H](O)[C@H](O)CO [Galactose] |  |  | 0.6% | 1.0% | 
10 | [Cl-].[Cl-].[Mg+2] [MgCl2] | 102 | 99.7 |  |  | 
11 | [Cl][Ni][Cl] [NiCl2] | 101 | 96.6 |  |  | 
12 | NO [Hydroxylamine] |  | 81.5 |  |  | inhibitory effect (in words) [1, 7]: inhibitory effect; Relative activity [1, 8]: 79.1; inhibitory effect (in words) [2, 6]: inhibitory effect
13 | NC(=O)CI [Iodoacetamide] | 101 |  |  |  | Relative activity [2]: 111
14 | c1cnc2c(c1)ccc1cccnc12 [o-phenanthroline] | 103 |  |  |  | Relative activity [2]: 106
15 | O=C(O)CN(CCN(CC(=O)O)CC(=O)O)CC(=O)O [EDTA] | 104 |  |  |  | Relative activity [2]: 113
16 | O=C(CO)[C@@H](O)[C@H](O)[C@H](O)CO [Fructose] |  |  | 0.3% | 0.2% | 
17 | OC[C@H]1O[C@H](O[C@H]2O[C@H](CO)[C@@H](O)[C@H](O)[C@H]2O)[C@H](O)[C@@H](O)[C@@H]1O [Trehalose] |  |  | 0.1> % | 0.3% | 
18 | OC[C@H]1O[C@@](CO)(O[C@H]2O[C@H](CO)[C@@H](O)[C@H](O)[C@H]2O)[C@@H](O[C@H]2O[C@H](CO)[C@@H](O)[C@H](O)[C@H]2O)[C@@H]1O [Melezitose] |  |  | 0.5% | 0.2% | 

Row | Compound | Relative activity [1] | Relative activity [2, 5] | Relative activity [3] | Relative activity [4] | also measured
19 | OC[C@H]1O[C@@](CO)(O[C@H]2O[C@H](CO)[C@@H](O)[C@H](O)[C@H]2O)[C@@H](O)[C@@H]1O [Sucrose] |  |  | 1.1% | 0.6% | 
20 | O=C[C@H](O)[C@H](O)[C@H](O)CO [Ribose] |  |  | 0.2% | 0.1> % | 
21 | OC[C@H]1O[C@H](O[C@H]2[C@H](O)[C@@H](O)C(O)O[C@@H]2CO)[C@H](O)[C@@H](O)[C@@H]1O (mixture of isomers) [Maltose] |  |  | 0.2% | 0.5% | 
22 | c1ccc(-c2ccccn2)nc1 [α,α′-dipyridyl] | 102 |  |  |  | Relative activity [2]: 109
23 | CC(=O)[O-].CC(=O)[O-].[Cd+2] [Cd(OAc)2, cadmium acetate] | 41.4 | 41.0 |  |  | inhibitory effect (in words) [1]: strong inhibitory effect; inhibitory effect (in words) [2, 6]: strong inhibitory effect
24 | [Cl-].[Cl-].[Co+2] [CoCl2] | 102 |  |  |  | Relative activity [2]: 94.1
25 | O=C[C@H](O)[C@@H](O)[C@H](O)CO [Xylose] |  |  | 10.4% | 10.1% | action of enzyme upon substrate (in words) [3]: acted upon; action of enzyme upon substrate (in words) [4]: acted upon
26 | [Ca+2].[Cl-].[Cl-] [CaCl2] | 103 | 103 |  |  | 
27 | [Cl][Mn][Cl] [MnCl2] | 99.1 | 93.4 |  |  | 
28 | [F-].[Na+] [NaF] | 102 | 111 |  |  | 
29 | O=C(O)CI [Monoiodoacetic acid] | 73.3 |  |  |  | inhibitory effect (in words) [1]: inhibitory effect; Relative activity [2]: 68.7; inhibitory effect (in words) [2]: inhibitory effect
30 | O=C(CO)[C@H](O)[C@@H](O)[C@H](O)CO [Sorbose] |  |  | 0.5% | 0.1> % | 
31 | [N-]=[N+]=[N-].[Na+] [NaN3, sodium azide] | 97.8 | 89.3 |  |  | inhibitory effect (in words) [2, 6]: inhibited
32 | Maltotriose |  |  | 1.0% | 0.2% | 
33 | O=CC[C@@H](O)[C@H](O)[C@H](O)CO [2-deoxy-D-glucose] |  |  | 17.2% | 14.3% | action of enzyme upon substrate (in words) [3]: acted upon; action of enzyme upon substrate (in words) [4]: acted upon
34 | O=S(=O)([O-])[O-].[Cu+2] [CuSO4, copper sulfate] | 4.5 | 2.2 |  |  | inhibitory effect (in words) [1]: strong inhibitory effect; inhibitory effect (in words) [2, 6]: strong inhibitory effect
35 | CCN1C(=O)C=CC1=O [N-ethylmaleimide] |  | 86.8 |  |  | inhibitory effect (in words) [1, 7]: inhibitory effect; Relative activity [1, 8]: 87.8; inhibitory effect (in words) [2, 6]: inhibitory effect
